In patent US20240108740A1, “THERAPEUTIC COMPOSITIONS INCLUDING SPN10 AND USES THEREOF” (Stealth BioTherapeutics Inc., priority 2022, published 2024):
Residues, ends and D or L forms follow the SMILES beside them.

Tests used:
Sprague-Dawley rats [1] = experiment: Example 40: contrast-induced nephropathy in diabetic animals; format: in vivo, rat; settings: iohexol
Procedure: Animal model: Impaired renal function caused by diabetes is one of the major predisposing factors for contrast induced nephropathy (McCullough, et al., J. Am. Coll. Cardio., 2008, 51, 1419-1428). In this experiment, a total of 57 Sprague-Dawley rats will be fed a high-fat diet for 6 weeks, followed by the administration of low-dose streptozotocin (30 mg/kg) for a period of 9 weeks. Blood glucose, serum creatinine and Cystatin C will be measured. Animals meeting the following criteria (n=20) will advance to CIN studies: Scr>250 μM, Cystatin C>750 ng/mL and blood glucose>=[…]. […]
On day 1, serum samples will be collected and total urine protein will be measured using a Bradford assay. […] Samples will be analyzed by students t-test and differences will be considered significant at p<0.05.
Renal function: Renal function will be assessed by determining serum and urinary creatinine at baseline, 48 hours and 72 hours following dye administration. The creatinine clearance will be calculated based on the serum and urinary creatinine and urinary volume. Urinary protein concentration will be determined by Bradford Protein Assay kit (Sigma, St. Louis, MO, U.S.A.), and Cystatin C will be measured using a Westang Rat Cystatin C kit (Shanghai, P.R.C.).

Sprague-Dawley rats [2] = experiment: Example 5: unilateral ureteral obstruction (UUO), 14 days; format: in vivo, rat
Procedure: UUO will be induced in Sprague-Dawley rats. The rats will be treated with saline (i.p., n=6), peptide conjugates (1 mg/kg i.p., n=6), aromatic-cationic peptides (e.g., an equivalent molar dose of aromatic-cationic peptide based on the concentration of the aromatic-cationic peptide administered in the peptide conjugate treatment group), SPN10(s) (e.g., an equivalent molar dose of SPN10 based on the concentration of SPN10 administered in the peptide conjugate treatment group), or SPN10(s) in combination with aromatic-cationic peptides (e.g., an equivalent molar dose of SPN10 based on the concentration of SPN10 administered in the peptide conjugate treatment group and an equivalent molar dose of aromatic-cationic peptide based on the concentration of aromatic-cationic peptide administered in the peptide conjugate treatment group) one day prior to induction of UUO, and once daily for 14 days after UUO induction. Rats will be sacrificed and the kidneys removed, embedded in paraffin, and sectioned. The sections will be treated with an anti-CD36 polyclonal IgG (Santa Cruz, sc-9154; diluted 1:100 with blocking serum) at room temperature for 1.5 hours. The slides will then be incubated with the second antibody conjugated with biotin (anti-rabbit IgG-B1; ABC kit, PK-6101) at room temperature for 30 min. The slides will then be treated with avidin, developed with DAB and counterstained with 10% hematoxylin. The contralateral unobstructed kidney will serve as the control for each animal.
Rats will then be sacrificed, kidneys removed, embedded in paraffin and sectioned. Slides will be incubated with anti-HNE rabbit IgG and a biotin-linked anti-rabbit IgG will be used as secondary antibody. The slides will be developed with DAB. Lipid peroxidation, which is increased by UUO, is anticipated to be reduced by treatment with peptide conjugates, aromatic-cationic peptides, or SPN10(s) (with or without aromatic-cationic peptides).
Rats will then be sacrificed, kidneys removed, embedded in paraffin and sectioned. To quantify nuclei with fragmented DNA, TUNEL assay will be performed with in situ TUNEL kit. Slides will be developed with DAB and counterstained with 10% hematoxylin. […] It is anticipated that there will be a significant increase in apoptotic cells observed in the obstructed kidney from saline-treated animals when compared to the contralateral unobstructed control.
Macrophage infiltration and interstitial fibrosis are anticipated to be prevented by treatment with peptide conjugates, aromatic-cationic peptides, or SPN10(s) (alone or in combination with aromatic-cationic peptides). Rats will be treated with either saline (n=6), peptide conjugates (1 mg/kg i.p., n=6), aromatic-cationic peptides (e.g., an equivalent molar dose of aromatic-cationic peptide based on the concentration of the aromatic-cationic peptide administered in the peptide conjugate treatment group), SPN10(s) (e.g., an equivalent molar dose of SPN10 based on the concentration of SPN10 administered in the peptide conjugate treatment group) or SPN10(s) in combination with aromatic-cationic peptides (e.g., an equivalent molar dose of SPN10 based on the concentration of SPN10 administered in the peptide conjugate treatment group and an equivalent molar dose of aromatic-cationic peptide based on the concentration of aromatic-cationic peptide administered in the peptide conjugate treatment group) one day prior to induction of UUO, and once daily for 14 days after UUO. Rats will then be sacrificed, the kidneys removed, embedded in paraffin and sectioned. Slides will be treated with monoclonal antibody for ED1 macrophage (1:75; Serotec). Horseradish peroxidase-linked rabbit anti-mouse secondary antibody (Dako) will be used for macrophage detection. Sections will then be counterstained with 10% hematoxylin. […]

SMILES: N=C(N)NCCC[C@H](NC(=O)[C@@H](N)Cc1c[nH]c2ccccc12)C(=O)N[C@@H](Cc1c[nH]c2ccccc12)C(=O)N[C@@H](CCCCN)C(N)=O [SPN10, H-L-Trp-L-Arg-L-Trp-L-Lys-NH2] (H-WRWK-NH2)
- elevated serum Cystatin C and reduced creatinine clearance following contrast dye (Sprague-Dawley rats [1]): attenuate these effects
- CD36 expression in tubular cells after UUO (Sprague-Dawley rats [2]; anti-CD36 immunostaining): significant reduction in CD36 expression
- HNE staining in obstructed kidney (Sprague-Dawley rats [2]; compared to saline-treated rats): significantly less HNE staining
- tubular dilation after UUO (Sprague-Dawley rats [2]; one day prior to UUO and once daily for 14 days): Tubular dilation is also anticipated
- interstitial fibrosis in obstructed kidney (Masson's trichrome) (Sprague-Dawley rats [2]; rat, in vivo): significantly less fibrosis
- lipid peroxidation in kidney after UUO (Sprague-Dawley rats [2]; rat, in vivo): reduced
- macrophage infiltration in obstructed kidney (ED1) (Sprague-Dawley rats [2]; rat, in vivo): significantly reduced
- number of apoptotic cells in obstructed kidney (TUNEL) (Sprague-Dawley rats [2]; rat, in vivo): significantly reduced
- up-regulation of CD36 associated with tubular cell apoptosis (Sprague-Dawley rats [2]; rat, in vivo): significantly inhibited
